Data taken from patent US20240092835A1, “NOVEL PEPTIDES CAPABLE OF ALTERING NK CELL ACTIVITY” (Massachusetts Institute of Technology, priority 2022, published 2024).

Tests used:
NKG2A+/NKG2C− NK cells = assay: NK cell activation markers in NKG2A+/NKG2C- NK cells incubated with peptide and K562 expressing HLA-E (inhibition); type: cell-based, human; conditions: for percentage of CCL3+ NK cells / percentage of CD107a+ NK cells / percentage of IFNG+ NK cells / percentage of TNF+ NK cells: NKG2A+/NKG2C- NK cells, K562/HLA-E
Outline: (§1)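 Read-out: % NK cells positive for surface activation markers; a rise indicates activation, a fall indicates inhibition. Targets were K562 cells expressing HLA-E, loaded with human- or HCMV-proteome-derived peptides.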

NKG2A−/NKG2C+ NK cells = assay: NK cell activation markers in NKG2A-/NKG2C+ NK cells incubated with peptide and K562 expressing HLA-E (activation); type: cell-based, human; conditions: for effect on NKG2A−/NKG2C+ NK cell activation (in words): K562 expressing HLA-E, CD107a, IFNG, TNF, CCL3; for percentage of CCL3+ NK cells / percentage of CD107+ NK cells / percentage of IFNG+ NK cells / percentage of TNF+ NK cells: NKG2A-/NKG2C+ NK cells, K562/HLA-E
Outline: as §1

NKG2A−/NKG2C− NK cells = assay: NK cell activation markers in control NKG2A-/NKG2C- NK cells incubated with peptide and K562 expressing HLA-E; type: cell-based, human
Outline: as §1

HLA-E = molecular target: T1, HLA-E (Homo sapiens, UniProt P13747); assay: HLA-E surface stabilization assay with RMA-S/HLA-E cells; type: cell-based; conditions: 30 μM peptide, 16 hours; for HLA-E surface expression stability (GeoMFI): anti-HLA-E antibody
T1 construct: expressed in transfected cells; host or cells: RMA-S/HLA-E cells (antigen processing-defective lymphoma cell line)
T1 sequence (P13747 22-358): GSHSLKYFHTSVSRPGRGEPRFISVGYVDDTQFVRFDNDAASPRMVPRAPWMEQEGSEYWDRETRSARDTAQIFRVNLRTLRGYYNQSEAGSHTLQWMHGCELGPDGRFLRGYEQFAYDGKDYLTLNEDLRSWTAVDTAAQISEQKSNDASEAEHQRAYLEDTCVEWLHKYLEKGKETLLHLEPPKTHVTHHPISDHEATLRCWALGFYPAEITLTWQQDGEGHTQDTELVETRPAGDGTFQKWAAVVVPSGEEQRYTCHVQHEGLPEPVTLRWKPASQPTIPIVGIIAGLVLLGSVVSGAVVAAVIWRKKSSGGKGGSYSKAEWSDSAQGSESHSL
T1 sequence (P61769 21-119 partner): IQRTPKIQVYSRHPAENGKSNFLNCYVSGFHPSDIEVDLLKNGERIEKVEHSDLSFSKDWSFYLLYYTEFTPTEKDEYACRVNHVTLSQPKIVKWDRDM
Experimental: HLA-E surface expression was assessed by measuring geometric mean fluorescence intensity (GeoMFI) in RMA-S cells following immunofluorescence staining with an anti-HLA-E antibody (Table 14). Increased GeoMFI was indicative of increased HLA-E surface expression stability following novel peptide exposures (FIG. 3).

VLPHRTQFL [CMV1, novel CMV-derived peptide UL120 72-80, Merlin]
effect on NKG2A+/NKG2C− NK cell inhibition (in words) (NKG2A+/NKG2C− NK cells; K562 expressing HLA-E, CD107a, IFNG, TNF, CCL3): strong inhibitory | percentage of CCL3+ NK cells (NKG2A+/NKG2C− NK cells; Trial 1): 3.55% | percentage of CD107a+ NK cells (NKG2A+/NKG2C− NK cells; Trial 1): 2.12% | percentage of IFNG+ NK cells (NKG2A+/NKG2C− NK cells; Trial 1): 0.46% | percentage of TNF+ NK cells (NKG2A+/NKG2C− NK cells; Trial 1): 0.27% | percentage of CCL3+ NK cells (NKG2A+/NKG2C− NK cells; Trial 2): 7.82% | percentage of CD107a+ NK cells (NKG2A+/NKG2C− NK cells; Trial 2): 3.42% | percentage of IFNG+ NK cells (NKG2A+/NKG2C− NK cells; Trial 2): 1.08% | percentage of TNF+ NK cells (NKG2A+/NKG2C− NK cells; Trial 2): 0.39% | percentage of CCL3+ NK cells (NKG2A+/NKG2C− NK cells; Trial 3): 7.91% | percentage of CD107a+ NK cells (NKG2A+/NKG2C− NK cells; Trial 3): 4.2% | percentage of IFNG+ NK cells (NKG2A+/NKG2C− NK cells; Trial 3): 2.52% | percentage of TNF+ NK cells (NKG2A+/NKG2C− NK cells; Trial 3): 1.09% | percentage of CCL3+ NK cells (NKG2A+/NKG2C− NK cells; Trial 4): 3.5% | percentage of CD107a+ NK cells (NKG2A+/NKG2C− NK cells; Trial 4): 3.15% | percentage of IFNG+ NK cells (NKG2A+/NKG2C− NK cells; Trial 4): 0.93% | percentage of TNF+ NK cells (NKG2A+/NKG2C− NK cells; Trial 4): 0.7% | percentage of CCL3+ NK cells (NKG2A+/NKG2C− NK cells; Trial 5): 14.5% | percentage of CD107a+ NK cells (NKG2A+/NKG2C− NK cells; Trial 5): 3.92% | percentage of IFNG+ NK cells (NKG2A+/NKG2C− NK cells; Trial 5): 1.35% | percentage of TNF+ NK cells (NKG2A+/NKG2C− NK cells; Trial 5): 0.82% | percentage of CCL3+ NK cells (NKG2A+/NKG2C− NK cells; Trial 6): 3.86% | percentage of CD107a+ NK cells (NKG2A+/NKG2C− NK cells; Trial 6): 2.27% | percentage of IFNG+ NK cells (NKG2A+/NKG2C− NK cells; Trial 6): 0.82% | percentage of TNF+ NK cells (NKG2A+/NKG2C− NK cells; Trial 6): 0.34% | effect on NKG2A−/NKG2C+ NK cell activation (in words) (NKG2A−/NKG2C+ NK cells): strong inhibitory and activating effects | effect on NKG2A−/NKG2C+ NK cell activation (in words) (NKG2A−/NKG2C+ NK cells; listed as SEQ ID NO. 15): strong activating effects | percentage of CCL3+ NK cells (NKG2A−/NKG2C+ NK cells; Trial 1): 80.1% | percentage of CD107+ NK cells (NKG2A−/NKG2C+ NK cells; Trial 1): 77.3% | percentage of IFNG+ NK cells (NKG2A−/NKG2C+ NK cells; Trial 1): 66.3% | percentage of TNF+ NK cells (NKG2A−/NKG2C+ NK cells; Trial 1): 53.3% | percentage of CCL3+ NK cells (NKG2A−/NKG2C+ NK cells; Trial 2): 90.4% | percentage of CD107+ NK cells (NKG2A−/NKG2C+ NK cells; Trial 2): 87.2% | percentage of IFNG+ NK cells (NKG2A−/NKG2C+ NK cells; Trial 2): 82.8% | percentage of TNF+ NK cells (NKG2A−/NKG2C+ NK cells; Trial 2): 76.1% | percentage of CCL3+ NK cells (NKG2A−/NKG2C+ NK cells; Trial 3): 86.5% | percentage of CD107+ NK cells (NKG2A−/NKG2C+ NK cells; Trial 3): 86.2% | percentage of IFNG+ NK cells (NKG2A−/NKG2C+ NK cells; Trial 3): 78.5% | percentage of TNF+ NK cells (NKG2A−/NKG2C+ NK cells; Trial 3): 68.8% | percentage of CCL3+ NK cells (NKG2A−/NKG2C+ NK cells; Trial 4): 67.5% | percentage of CD107+ NK cells (NKG2A−/NKG2C+ NK cells; Trial 4): 67.3% | percentage of IFNG+ NK cells (NKG2A−/NKG2C+ NK cells; Trial 4): 58.2% | percentage of TNF+ NK cells (NKG2A−/NKG2C+ NK cells; Trial 4): 51% | percentage of CCL3+ NK cells (NKG2A−/NKG2C+ NK cells; Trial 5): 78.1% | percentage of CD107+ NK cells (NKG2A−/NKG2C+ NK cells; Trial 5): 76.9% | percentage of IFNG+ NK cells (NKG2A−/NKG2C+ NK cells; Trial 5): 69.5% | percentage of TNF+ NK cells (NKG2A−/NKG2C+ NK cells; Trial 5): 66% | percentage of CCL3+ NK cells (NKG2A−/NKG2C+ NK cells; Trial 6): 58.3% | percentage of CD107+ NK cells (NKG2A−/NKG2C+ NK cells; Trial 6): 53.4% | percentage of IFNG+ NK cells (NKG2A−/NKG2C+ NK cells; Trial 6): 42.5% | percentage of TNF+ NK cells (NKG2A−/NKG2C+ NK cells; Trial 6): 33.3% | percentage CCL3+ NK cells (NKG2A−/NKG2C− NK cells; Trial 1): 29.9% | percentage CD107+ NK cells (NKG2A−/NKG2C− NK cells; Trial 1): 21.4% | percentage TNF+ NK cells (NKG2A−/NKG2C− NK cells; Trial 1): 2.62% | percentage of IFNG+ NK cells (NKG2A−/NKG2C− NK cells; Trial 1): 13.5% | percentage CCL3+ NK cells (NKG2A−/NKG2C− NK cells; Trial 2): 52.4% | percentage CD107+ NK cells (NKG2A−/NKG2C− NK cells; Trial 2): 32.5% | percentage TNF+ NK cells (NKG2A−/NKG2C− NK cells; Trial 2): 9.43% | percentage of IFNG+ NK cells (NKG2A−/NKG2C− NK cells; Trial 2): 27.7% | percentage CCL3+ NK cells (NKG2A−/NKG2C− NK cells; Trial 3): 47.3% | percentage CD107+ NK cells (NKG2A−/NKG2C− NK cells; Trial 3): 41.9% | percentage TNF+ NK cells (NKG2A−/NKG2C− NK cells; Trial 3): 13.6% | percentage of IFNG+ NK cells (NKG2A−/NKG2C− NK cells; Trial 3): 36.7% | percentage CCL3+ NK cells (NKG2A−/NKG2C− NK cells; Trial 4): 27.2% | percentage CD107+ NK cells (NKG2A−/NKG2C− NK cells; Trial 4): 25.7% | percentage TNF+ NK cells (NKG2A−/NKG2C− NK cells; Trial 4): 8.63% | percentage of IFNG+ NK cells (NKG2A−/NKG2C− NK cells; Trial 4): 17.4% | percentage CCL3+ NK cells (NKG2A−/NKG2C− NK cells; Trial 5): 26.6% | percentage CD107+ NK cells (NKG2A−/NKG2C− NK cells; Trial 5): 18.6% | percentage TNF+ NK cells (NKG2A−/NKG2C− NK cells; Trial 5): 6.68% | percentage of IFNG+ NK cells (NKG2A−/NKG2C− NK cells; Trial 5): 14.6% | percentage CCL3+ NK cells (NKG2A−/NKG2C− NK cells; Trial 6): 19.1% | percentage CD107+ NK cells (NKG2A−/NKG2C− NK cells; Trial 6): 14.5% | percentage TNF+ NK cells (NKG2A−/NKG2C− NK cells; Trial 6): 2.86% | percentage of IFNG+ NK cells (NKG2A−/NKG2C− NK cells; Trial 6): 8.57% | HLA-E surface expression stability (GeoMFI) (HLA-E; Trial 1): 2140 GeoMFI | HLA-E surface expression stability (GeoMFI) (HLA-E; Trial 2): 1714 GeoMFI | HLA-E surface expression stability (GeoMFI) (HLA-E; Trial 3): 2014 GeoMFI | HLA-E surface expression stability (GeoMFI) (HLA-E; Trial 4): 2421 GeoMFI | HLA-E surface expression stabilization strength, approximate GeoMFI (HLA-E; approximate value): approximately 2×10^3 GeoMFI
